Laboratory results published in the METLIN SMRT retention time set (Domingo-Almenara et al. 2019).

Test: gradient 5% acetonitrile 3 min, to 50% in 2 min, to 85% in 15 min, held 3 min, 100 µL/min
Settings: column: Zorbax Extend-C18 2.1 x 50 mm; eluents: water / acetonitrile, 0.1% formic acid
How it was run: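 Retention times of pure standards were taken from adduct peaks that were selected by computer and manually inspected. Over 3 months, mixtures of ~100 molecules were run by HPLC–quadrupole time-of-flight mass spectrometry in positive and negative ionization mode. The Zorbax Extend-C18 column (2.1 × 50 mm, 1.8 μm) ran at 100 μL/min in water and acetonitrile, each containing 0.1% formic acid, with 40 μL dead volume and 900 μL dwell volume.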

Compound	RP-LC retention time [s]
COc1ccc(Cl)cc1S(=O)(=O)N1CCCC(C(=O)Nc2ccccc2)C1 (stereo not given)	967
Cc1cnc(C)n1CC1CCN(S(=O)(=O)c2ccc(C#N)cc2)C1 (stereo not given)	628
CN(C)CCCN1c2ccccc2Sc2ccc(C(F)(F)F)cc21	885
O=C(c1ccccn1)N1CCCCC1c1nc(-c2cnccn2)no1 (stereo not given)	637
Cc1nc(-c2ccc3c(c2)CCN3C(=O)C2COc3ccccc3O2)cs1 (stereo not given)	1020
CCn1cnc2cc(-c3noc(C4CC(=O)N(c5ccc(C)c(C)c5)C4)n3)ccc21 (stereo not given)	734
CC(C)(C)CC(=O)N1CCN(c2nc(CN3CCCCCC3)cs2)CC1	668
Cc1ccc(N2CCC(NC(=O)c3ccc(Cl)s3)C2=O)cc1 (stereo not given)	888
CCCc1noc(-c2ccc3nnc(CC(=O)Nc4cc(C)cc(C)c4)n3c2)n1	947
O=C1NCCOCCN(C(=O)Nc2ccccc2)[C@@H]2CCCC[C@H]12	741
COCc1noc(C2CN(C(=O)CC(F)(F)F)CC23CCCC3)n1 (stereo not given)	798
Cc1cc2[nH]c(C(=O)Nc3ccc(F)cc3Cl)c(CN3CCOCC3)c2s1	721
O=C(Cc1ccccc1)NC(c1ccccc1)c1ccc2cccnc2c1O (stereo not given)	822
CCOc1ccccc1-c1noc(Cn2c(=O)n(-c3cccc(C)c3)c(=O)c3sccc32)n1	1010
CCN1C(=O)C2(CCN(C(=O)CC(C)C)CC2)c2ccccc21	818
O=C(OCCN1CCN(C2=NS(=O)(=O)c3ccccc32)CC1)c1ccccc1	656
COCCN1C(=O)[C@H]2CN(Cc3ccc(C)c(C)c3)C[C@H]2C1=O	577
CCCS(=O)(=O)c1nc2ccc(NS(=O)(=O)c3ccccc3)cc2s1	879
CCOC(=O)N1CCN(C(=O)Cn2nc(-c3ccccc3)cc(N)c2=O)CC1	673
O=C(OCc1nc2ccccc2s1)c1ccc([N+](=O)[O-])o1	848
CN1C[C@@H](CO)C=C2c3cccc4[nH]cc(c34)C[C@@H]21	607
O=C(c1ccc(F)cc1)N1CCN(c2nc(CN3CCOCC3)cs2)CC1	597
CCN1CCN(C(=O)c2cc3c(=O)n(Cc4ccco4)ccc3nc2C)CC1	664
COc1cccc(CNC(=O)Cn2ccc3ccc(N4CCOCC4)nc32)c1	858
CCN(CC)S(=O)(=O)c1ccc2c(c1)CC(C(=O)N1CCCCCC1)N2C(C)=O (stereo not given)	839
Cn1cc2c3c(cccc31)CN(C(=O)Nc1ccc(Cl)cc1F)CC2	1250

Compound	RP-LC retention time [s]
Cc1ccc(-n2ccc(=O)c(-c3nc(-c4ccccc4)no3)n2)cc1	888
CSc1ccc(CNC(=O)c2cc3ccncc3n2C)cc1	637
O=C(COc1ccc(Cl)cc1)Nc1nc(-c2ccc(S(=O)(=O)N3CCOCC3)cc2)cs1	1040
COc1ccc(CCn2c(-c3cccs3)nc3c(c(=O)c4ccccc4n3C)c2=O)cc1	880
COc1ccc(Cl)cc1S(=O)(=O)NCCn1nc(C)cc1C	719
CC(=O)NCC1CNCC12CCCCC2 (stereo not given)	509
O=C(Nc1ccc2c(c1)OCCO2)C1CCN(C(=O)C2Sc3ccccc3NC2=O)CC1 (stereo not given)	730
Cc1ccc(-n2nc3c(=O)n(C(C)C(=O)NC4CC4)nc(C)c3c2C)cc1 (stereo not given)	744
CC(C)C(NC(=O)Nc1ccc(F)cc1)C(=O)N1CCc2ccccc21 (stereo not given)	960
CCCC(Nc1nc(C(=O)OCC)nc2ccccc12)c1cccs1 (stereo not given)	933
CCc1cccc(C)c1NC(=O)C1CCN(S(=O)(=O)c2ccc3c(c2)NC(=O)CO3)CC1	818
Cc1ccc(-n2c(C)c(C)c3c(=O)n(CC(=O)N4CCc5ccccc54)cnc32)cc1	1040
CCC(=O)N1CCc2cc(N3CC(C(=O)Nc4cccc(C(C)=O)c4)CC3=O)ccc21 (stereo not given)	696
COC(=O)c1ncn2c1C(=O)N(Cc1ccccc1F)C(C)(C(=O)NC1CCCC1)C2 (stereo not given)	737
CCCn1nnc2cc(S(=O)(=O)N3CCCC(C(=O)N4CCCCCC4)C3)ccc21 (stereo not given)	890
CCC(=O)N1CCc2ccccc2C1C(=O)NCc1cccc(Br)c1 (stereo not given)	828
CCN(C(C)=O)c1nc(-c2ccc(C3CCCCC3)cc2)cs1	848
COc1cccc(N2CCN(C(=O)c3[nH]c(C)c(S(=O)(=O)N4CCOCC4)c3C)CC2)c1	772
CCNC(=O)N1CCCC(c2cccc(C(=O)NCc3ccc(C)o3)c2)C1 (stereo not given)	774
CCn1c(=O)oc2cc(-c3noc(CNC(=O)c4ccccc4)n3)ccc21	801
COCCc1noc(C2CN(S(=O)(=O)Cc3ccccc3)C2)n1	780
Cc1ccc(CN2CCCn3nc(C(=O)NCc4ccco4)cc3C2=O)cc1	804
COC(=O)C(C)Sc1ncnc2sc(C)c(C)c12 (stereo not given)	955
CCCCN(C)C(=O)c1cc2sc(C)c(CN3CCCC3)c2[nH]1	671
O=C(NCC(c1ccccc1)c1c[nH]c2ccccc12)NC1CCCCC1 (stereo not given)	976

The remaining lines, values ahead:

RP-LC retention time [s]	Compound
830	O=C(Nc1ccccc1NC(=O)c1ccccc1C(F)(F)F)c1ccsc1
770	O=C(Nc1ccc(C(=O)O)c(O)c1)c1cc2ccccc2c(=O)o1
581	COC(=O)c1ccc(NC(=O)C(=O)NCCN2CCN(c3ccccc3OC)CC2)cc1
892	COc1ccc(-c2ccnc3nc(-c4cccs4)nn23)cc1
651	O=C(CC1CCCN(c2cnn(CC3CC3)c(=O)c2)C1)NC1CC1 (stereo not given)
901	Cc1cccc(N2CCN(C(=O)c3cn(-c4ccc(NC(=O)C5CC5)cn4)cn3)CC2)c1C
1110	COc1c(C(=O)Nc2ccc(N3CCOCC3)cc2)sc2ccc(Cl)cc12
1120	O=C(NC1(c2nc(-c3ccccc3)no2)CCCCC1)c1ccc2c(c1)OCO2
941	CN(C)S(=O)(=O)c1ccc(-c2nnc(C(=O)NCCC3=CCCCC3)o2)cc1
595	COc1ccc2c(C)cc(C)nc2n1
777	Cc1ccc2nc(-c3c(F)cccc3Cl)c(Nc3ccccc3C)n2c1
678	Cc1ccc(N2CCN(Cc3nc(-c4ccc(N5CCCC5)nc4)no3)CC2)cc1
594	O=C(Nc1cccnc1)C1CCCN(S(=O)(=O)c2c[nH]c(C(=O)N3CCCC3)c2)C1 (stereo not given)
569	CO[C@H]1C(=O)N(C2CCN(S(=O)(=O)C(C)C)CC2)[C@H]1c1ccncc1
1230	CCOc1nc2ccccc2nc1N1CCCC(C(=O)Nc2ccccc2C(C)C)C1 (stereo not given)
960	O=C(Cn1nc2c(Oc3ccccc3)nccn2c1=O)Nc1cc(C(F)(F)F)ccc1Cl
859	COc1ccc(NC(=O)Cn2ccc3ccn(Cc4ccccc4)c3c2=O)cc1OC
983	CCN(C(=O)C1CCCN(S(=O)(=O)c2cc(-c3noc(C)n3)cs2)C1)c1ccccc1 (stereo not given)
922	CCOc1ccc(-c2nc(Cn3nnc(C(=O)NCc4ccc(OC)cc4)c3N)c(C)o2)cc1OC
672	CCn1nc(C)c(CCNC(=O)Nc2ccccc2C(F)(F)F)c1C

RP-LC retention time [s]	Compound
725	CN(C)C(=O)c1csc(S(=O)(=O)N2CCC(C(=O)NCc3ccc(F)cc3)CC2)c1
818	Cc1cccc(N2CCN(C(=O)c3cc4c(=O)n(C)ccc4n3C)CC2)c1C
605	COc1ncccc1C(=O)N1CCC(C(=O)Nc2nccs2)CC1
645	CCc1nc2c(c(=O)n1CC(=O)Nc1c(C)cccc1C)CN(Cc1ccccc1)CC2
894	Cc1nc(CC(=O)Nc2nc(-c3ccc(F)cc3)c(C)s2)cs1
643	COC(=O)c1ncn2c1C(=O)N(C1CC1)C(C)(C(=O)NCc1ccc(C)cc1)C2 (stereo not given)
561	CCN1CCN(CCNC(=O)CCC(=O)N2CC3CCCN3c3ccccc32)CC1 (stereo not given)
943	O=C(c1[nH]nc2c1COc1ccccc1-2)N1CC(c2noc(COc3ccc(F)cc3)n2)C1
1100	CC1CCN(c2cc(-c3noc(C(=O)NCCC4=CCCCC4)n3)ccn2)CC1
639	CCNc1cc(N2CCC(CCC(=O)NC(CC)CC)CC2)ncn1
620	COC(=O)CNC(=O)Nc1cc(F)c2nc(N3CCOCC3)ccc2c1
681	Cc1ccc(-c2csc(NC(=O)CN3CCN(C(=O)C4CCCO4)CC3)n2)cc1 (stereo not given)
791	CCn1nc(CNC(=O)Cc2ccccc2F)c2ccccc21
506	O=C(NCCc1ccncc1)C1CCc2sc(C(=O)N3CCCC3)cc2C1 (stereo not given)
1060	COc1ccccc1NC(=O)c1cc2ccccc2cc1O
588	CN(C)CCNC(=O)c1ccc(Cn2nc(N3CCN(c4ccc(F)cc4)CC3)ccc2=O)o1
812	CCc1ccc(CNC(=O)c2cc3n(n2)CC(C)(C(=O)NC2CCCC2)N(C)C3=O)cc1 (stereo not given)
774	COc1cccc(CNC(=O)c2ccc3c(c2)nc2n3CCN(C3CCCCC3)C2=O)c1
692	O=C(NCc1ccc2c(c1)OCO2)NCc1ccc2c(c1)OCO2
